Values quoted from earlier work, collected in US20230211112A1, “Method for emergency relief of acute ischemic attacks” (priority 2020, published 2023).

Test system: rats
Conditions: confined space

SMILES | oxygen consumption reduced compared to the control (average, vs air environment, same initial oxygen concentration) [%] | maximum survival time increased (vs air environment control) [%] | oxygen consumption decreased (vs air environment control) [times] | time of maximum animal survival increased (vs air environment control) [times]
[Ar] [argon] | 27 | 33 |  | 
[Xe] [xenon] |  |  | 3.2 | 3.5
